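These data come from cells grown in 96-well plates and exposed to compound for 48 hours at five concentrations. GI50 marks 50% less growth.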 The source made the active and inactive calls. Cut-off read from the data, not from the text of the source: active = GI50 up to about 1.1 µM and inactive = higher. Where only a bound is given, the exact number is not on record here.

Holding throughout (test): DTP human tumour cell line panel, 48 h
The subject of experiment [1] is A498.
Experiment [2] concerns CCRF-CEM.
The subject of experiment [3] is Hs-578T.
The subject of experiment [4] is SF-539.
Experiment [5] has as its system MDA-N.
In experiment [6] the test system is NCI-H522.
Experiment [7] deals with MCF7.
Experiment [8] has as its system SNB-75.
Experiment [9] deals with SF-295.
Experiment [10] has as its system SK-MEL-2.
Experiment [11] deals with SR.
Experiment [12] concerns M14.
For experiment [13], the system named is NCI/ADR-RES.
The test system of experiment [14] is SN12C.
In experiment [15] the test system is HL-60.
The test system of experiment [16] is K562.
Experiment [17] relates to 786-0.
Experiment [18] deals with A549.
In experiment [19] the test system is MDA-MB-231.
The test system of experiment [20] is TK-10.

As usually defined, the GI50 is the concentration at which growth is held to half of that of the control. Regarding `Cc1ccc(OCC2OC(n3cnc4c(Cl)nc(Nc5cc(Cl)cc(Cl)c5)nc43)CC2Oc2ccc(C)cc2)cc1` (stereo unspecified), the GI50 in experiment [1], in experiment [2], in experiment [3], in [4], in experiment [5] and in experiment [6] was > 100 µM (inactive) in each case. Besides, the GI50 in experiment [7] is > 100 µM (inactive); in [8], 17.4 µM (inactive); in experiment [9] it was > 100 µM (inactive); in experiment [10], > 100 µM (inactive); in [11], > 100 µM (inactive); in experiment [12], > 100 µM (inactive). Further, the GI50 in [13], in [14], in [15], in experiment [16], in [17] and in [18] was > 100 µM (inactive) throughout. Also, the GI50 in experiment [19] is > 100 µM (inactive).

As for `CCN(CC)CCNc1ccc([N+](=O)[O-])c2nc3ccc(OC)cc3c(N)c12`, the GI50 was 1.5 µM (inactive) in [1]; 0.248 µM (active) in [2]; 1.27 µM (inactive) in experiment [3]; 1.68 µM (inactive) in [4]; 1.67 µM (inactive) in experiment [5]; 0.309 µM (active) in experiment [6]. Further, the GI50 in experiment [7] is 0.43 µM (active); in experiment [8] it was 1.77 µM (inactive); in experiment [9] it was 1.37 µM (inactive); in experiment [10], 1.05 µM (active); in [20], 1.57 µM (inactive); in experiment [11] it was 0.262 µM (active). Moreover, the GI50 in [12] was 1.37 µM (inactive); in [13], 1.24 µM (inactive); in [14], 1.44 µM (inactive); in experiment [15], 0.0826 µM (active); in experiment [16] it was 0.238 µM (active); in experiment [17], 0.614 µM (active). The figures for the GI50 in experiment [18] and in [19] were 1.27 µM (inactive) and 1.16 µM (inactive), respectively.

Consider `Cn1c(=O)c2ccccc2[n+]2c(-c3cccc([N+](=O)[O-])c3)csc12`, for which the GI50 in experiment [1] is 58.9 µM (inactive); in [2], 32.6 µM (inactive); in experiment [3], 18.7 µM (inactive); in experiment [4] it was 59.6 µM (inactive); in [5] it was 76.6 µM (inactive); in [6], 38 µM (inactive). The GI50 in experiment [7] was 32.6 µM (inactive); in [8], 12.9 µM (inactive); in experiment [9] it was 44.8 µM (inactive); in experiment [10] it was 36.4 µM (inactive); in experiment [20], 36.4 µM (inactive); in experiment [11] it was 18.6 µM (inactive). The GI50 in experiment [12] is > 100 µM (inactive); in experiment [13], 9.51 µM (inactive); in experiment [14], > 100 µM (inactive); in [15], 23 µM (inactive); in experiment [16], 36.7 µM (inactive); in experiment [17], 54.3 µM (inactive). Moreover, the GI50 in experiment [18] was 91.4 µM (inactive); in [19], 30.8 µM (inactive).

Take `COc1ccc(S(=O)(=O)N2C(=O)CCC2C(=O)NC(N)=O)cc1` (stereo unspecified): the GI50 in experiment [1], in experiment [2], in experiment [3], in [4], in [5] and in experiment [6] was > 100 µM (inactive) each time. Further, the GI50 in experiment [7] was > 100 µM (inactive); in [8], 0.381 µM (active); in experiment [9], > 100 µM (inactive); in experiment [10] it was > 100 µM (inactive); in experiment [20] it was > 100 µM (inactive); in [11], > 100 µM (inactive). Moreover, the GI50 in experiment [12], in [13], in [14], in experiment [15], in experiment [16] and in experiment [17] was > 100 µM (inactive) in each case. Moreover, the GI50 in experiment [18] and in experiment [19] was > 100 µM (inactive) in each case.

In the case of `COc1ccc(/C=C\c2cc(OC)c(OC)c(OC)c2)cc1OCC(=O)O`, the GI50 was 31.1 µM (inactive) in experiment [1]; 4.68 µM (inactive) in experiment [2]; 2.93 µM (inactive) in experiment [3]; 3.64 µM (inactive) in experiment [4]; 2.15 µM (inactive) in [5]; 3.36 µM (inactive) in [6]. Besides, the GI50 in experiment [7] was 36.6 µM (inactive); in [8], 5.15 µM (inactive); in experiment [9], 12.7 µM (inactive); in experiment [10], 6.68 µM (inactive); in experiment [20], > 97.3 µM (inactive); in [11], 3.89 µM (inactive). For the same molecule, the GI50 in experiment [12] was 3.79 µM (inactive); in [13], 2.21 µM (inactive); in experiment [14] it was 9.18 µM (inactive); in experiment [15], 2.84 µM (inactive); in [16] it was 3.68 µM (inactive); in experiment [17], 37.6 µM (inactive). Moreover, the GI50 in experiment [18] is 24.8 µM (inactive); in [19] it was 18 µM (inactive).

As for `COc1cc(CC2c3cc(OC)c(OC)cc3CCN2C)c(Oc2cc3c(cc2OC)-c2c(O)c(OC)cc4c2C(C3)N(C)CC4)cc1OC` (stereo unspecified), the GI50 is 22 µM (inactive) in experiment [1]; 18.8 µM (inactive) in experiment [2]; 18.2 µM (inactive) in [3]; 14.1 µM (inactive) in [4]; 16.7 µM (inactive) in [5]; 17.8 µM (inactive) in experiment [6]. In addition, the GI50 in experiment [7] is 12.5 µM (inactive); in [8], 14.9 µM (inactive); in [9] it was 17.9 µM (inactive); in [10], 22.8 µM (inactive); in [20], 22 µM (inactive); in [11], 3.68 µM (inactive). For the same molecule, the GI50 in [12] is 5.04 µM (inactive); in experiment [13], 20.6 µM (inactive); in experiment [14], 22.1 µM (inactive); in [15], 4.01 µM (inactive); in experiment [16], 10.8 µM (inactive); in experiment [17] it was 23.1 µM (inactive). The GI50 in [18] is 33.2 µM (inactive); in [19], 18.3 µM (inactive).

Turning to `COc1ccnc2c1C(=O)c1nc3ccccc3c3ccnc-2c13`, the 50% growth inhibitory concentration (GI50) is 0.0859 µM (active) in experiment [1]; 0.295 µM (active) in [2]; 1.55 µM (inactive) in experiment [3]; 0.373 µM (active) in [4]; 0.25 µM (active) in [5]; 0.0375 µM (active) in [6]. Also, the 50% growth inhibitory concentration (GI50) in experiment [7] was 0.0807 µM (active); in [8], 0.04 µM (active); in experiment [9], 0.169 µM (active); in experiment [10], 0.789 µM (active); in experiment [20], 0.324 µM (active); in [11] it was 0.0343 µM (active). Also, the GI50 is 0.0418 µM (active) in [12]; 0.0713 µM (active) in experiment [13]; 0.112 µM (active) in [14]; 0.06 µM (active) in [15]; 0.163 µM (active) in experiment [16]; 0.221 µM (active) in experiment [17]. Further, the GI50 in experiment [18] is 0.142 µM (active); in experiment [19], 0.21 µM (active).

In the case of `C/C=C(/C)C(=O)O[C@H](C[C@@H](C)[C@H]1CC(c2ccoc2)OC1=O)[C@@]1(C)C(=O)CCC2O[C@]21C` (stereo partly specified), the GI50 in experiment [1], in experiment [2], in [3], in experiment [4], in experiment [5] and in [6] was > 100 µM (inactive) throughout. The GI50 in [7], in experiment [8], in experiment [9], in experiment [10], in experiment [20] and in [11] was > 100 µM (inactive) throughout. In addition, the GI50 in experiment [12], in experiment [13], in experiment [15], in [16], in [17] and in [18] was > 100 µM (inactive) each time. Moreover, in experiment [19], the GI50 was > 100 µM (inactive).

As to `Oc1cc(O)c2c(c1)O[C@H](c1cc(O)c(O)c(O)c1)[C@@H](O)C2` [GALLOCATECHIN], the GI50 was > 100 µM (inactive) in [1]; 19.5 µM (inactive) in [2]; 46.6 µM (inactive) in experiment [3]; 18 µM (inactive) in [4]; 21.1 µM (inactive) in [5]; 17.5 µM (inactive) in experiment [6]. In addition, the GI50 in [7] was 18.8 µM (inactive); in experiment [8], 17.9 µM (inactive); in [9], 24.4 µM (inactive); in experiment [10], 24.6 µM (inactive); in experiment [11] it was 19.6 µM (inactive); in [12] it was 25.1 µM (inactive). Further, the GI50 in [13] was 36.2 µM (inactive); in experiment [14] it was 18.3 µM (inactive); in experiment [15], 22.2 µM (inactive); in [16], 18 µM (inactive); in [17] it was 18 µM (inactive); in [18], 40.5 µM (inactive). Besides, the GI50 in experiment [19] is 18.7 µM (inactive).

Turning to `Cc1cc2c(cc1-c1cc3c(cc1C)C(C(C)C)=C(O)C(=O)/C3=C\Nc1cccc3c(N)cccc13)/C(=C/Nc1cccc3c(N)cccc13)C(=O)C(O)=C2C(C)C`, the GI50 is > 100 µM (inactive) in experiment [1]; 39.2 µM (inactive) in [2]; > 100 µM (inactive) in [3]; > 100 µM (inactive) in [5]; > 100 µM (inactive) in [6]; > 100 µM (inactive) in [7]. In addition, the GI50 is > 100 µM (inactive) in experiment [8]; > 100 µM (inactive) in experiment [9]; > 100 µM (inactive) in [10]; > 100 µM (inactive) in experiment [20]; 65.8 µM (inactive) in experiment [11]; 48.5 µM (inactive) in [12]. For the same molecule, the GI50 in experiment [13] is > 100 µM (inactive); in experiment [14], > 100 µM (inactive); in experiment [15], 33.8 µM (inactive); in experiment [16], 54.3 µM (inactive); in experiment [17] it was > 100 µM (inactive); in experiment [18], 59.4 µM (inactive). The GI50 in experiment [19] is > 100 µM (inactive).
